Data set [1] concerns SOD2. Put plainly: SOD2 protein expression and SOD activity in primary rat cortical cultures. In kind it is cell-based. The text has this:
N=3-6/group, mean+/−SEM, *p<0.05, **p<0.01, 2-way ANOVA, post-hoc t-test.

A short description of a further data set: In vivo PK (I.V./P.O.). Set-up: species or system mice. The note with it: I.V./P.O., 1 and 5 mg/kg, respectively. How it is done:
Before the studies above were initiated, congenic SOD1 G93A mice were dosed with 50 mg/kg of compound no. 1 and compound no. 2 via I.P. injection to rule out any toxicity issues prior to initiating the efficacy study (FIG. 4A-C).
The experiments will involve the administration of compounds to 5-6 week old CD1 male mice. Mice are dosed by either a 1 mg/kg IV bolus or 5 mg/kg oral gavage. Blood samples are collected by cardiac puncture at 0, 0.25, 0.5, 1, 2, 4, 6, 8, 12, and 24 hrs. There will be three mice per time point. Plasma concentration over time will be determined by LC/MS from which the standard PK parameters of clearance, volume of distribution, t1/2 and % F can be derived using WinNoLin software (Pharsight Inc.). This will require a total of 60 mice per compound. Plasma will be analyzed by reverse phase chromatography with MS/MS detection operating in the positive ion mode using multiple reaction monitoring using an internal standard and Applied Biosystems Analyst 1.4 software. Peak time (when maximum plasma drug concentration occurs), peak drug level [approximate maximum concentrations of drug in plasma (Cmax)] and t1/2 for drug elimination will be estimated for each tested compound. Bioavailability (F) will be calculated from the ratio of AUCPO/AUCIV and expressed as a percentage. To determine levels in brain, six additional mice will be dosed with 1 mg/kg I.V. and sacrificed at 0.25 and 1 hr. Brain and spinal cord samples will be collected at these two time points, quick frozen in an ice box and kept at −75±15° C. All samples will be weighed and homogenized with phosphate buffered saline (PBS) by brain weight (g) to PBS volume (mL) ratio 1:3 before analysis. The actual concentration is the detected value multiplied by the dilution factor.

Data set [2] deals with SOD1 G93A transgenic mouse. Put plainly: Efficacy in the SOD1 G93A transgenic mouse model of ALS. It is filed as in vivo. The note with it: 25 mg/kg I.P. daily from day 96. As to the method: Briefly, Congenic SOD1-G93A mice were doced with up to 50 mg/kg of both compounds (IP) to evaluate any toxicity issues prior to initiating the efficacy study. Also, mice administered 20 mg of each compound had high plasma and brain levels at 30 minutes. Next, individually genotyped SOD1-G93A mice (Prize4life-Jackson Labs) were treated with each compound (25 mg/kg, IP) at disease onset (day 96). The treatment extended survival, reduced weight loss and improved the neurologic symptoms. […] The average weight within the groups before the treatment was similar.
While compounds which increase SOD2 expression and activity have potential utility in a number of neurodegenerative diseases involving ROS overproduction, it was decided to test these two compounds in a mouse model of ALS for a variety of reasons, including the evidence for oxidative stress in ALS (described above), the ability of these compounds to induce SOD2 in a motor neuron-like mouse cell line (NSC-34; FIG. 3B), and the availability of a mouse model with dysfunction in SOD1 (human SOD1 G93A transgenic mouse; Jackson Laboratory). The pilot experiment involved treating six wildtype and six SOD1 G93A transgenic males on the C57BL/6 background with 25 mg/kg compound no. 1 and compound no. 2 I.P. daily, beginning around disease onset (day 96; FIG. 4A and FIG. 4B). Mouse survival and behavioral phenotype were observed based on guidelines from “Working with ALS mice: JAX handbook,” using a 4-point severity score (FIG. 4C).
Referring to FIG. 4A and FIG. 4B, SOD1 G93A mice received daily IP injections of saline (control) or compounds (25 mg/kg) starting on day 96.
Referring. To FIG. 4C, progression from neurological score 1 was delayed only by compound no. 2 (2 day delay, +30%), progression to higher (worse) scores was delayed by both compounds. *P<0.05; **P<0.01, 2-way ANOVA.

Data set [3] in a line: Plasma and brain levels after I.P. dosing of SOD1 G93A mice. The note with it: 50 mg/kg I.P., within 30 minutes. It is filed as in vivo.
Data set [4] deals with SOD2. The experiment in a line: Quantitative RT-PCR for SOD2 mRNA in NSC-34 neuroblastoma cells. It is filed as cell-based, mouse. Particulars: NSC-34, 1 μM, 24 h.
For another data set, the system named is NF-κB. The experiment in a line: High throughput assay for NF-κB reporter activity (luciferase) in stably transfected SH-SY5Y cells. In kind it is cell-based, human. Particulars: for maximal fold induction: 24 h, read-out: Emax; for EC50: 24 hr. How it is done:
SH-SY5Y human neuroblastoma cell line was obtained from the American Tissue Culture collection (ATCC). A commercially available expression vector containing the NF-kB promoter enhancer region driving the firefly luciferase gene expression and a second plasmid containing the gene conferring resistance to blasticidin were used in a dual transfection approach to obtain a stable cell line. […] Luciferase activity was measured as a reporter of NF-kB activation using the Bright-Glo Luciferase assay kit (Cat. No. E2620, Promega, Madison, Wis.) according to the manufacturer's instructions. Cell viability was measured using the CellTiter-Glo Luminescent Cell Viability assay kit (Cat. No. G7572, Promega, Madison, Wis.) according to the manufacturer's instructions. Briefly, cells were equilibrated at room temperature for 30 min prior to the addition of Bright-Glo to the white opaque plates or CellTiter-Glo to the black clear bottom plates. A volume of assay buffer equal to the volume of cell media was added to each well and incubated for five min to allow complete cell lysis. All procedures were performed in the dark.

The subject of data set [5] is SOD2. The experiment in a line: Quantitative RT-PCR for SOD2 mRNA in SH-SY5Y neuroblastoma cells. In kind it is cell-based, human. Particulars: 1 μM, 6 h. As to the method:
Referring to FIG. 1A and FIG. 1B, SH-SY5Y neuroblastoma cells were treated with vehicle or compounds (1 μM) for 6 or 24 hours, and cells were collected for RNA isolation (Trizol method). Quantitative RT-PCR for Manganese superoxide dismutase (SOD2; FIG. 1A) or brain-derived neurotrophic factor (BDNF, exon 1; FIG. 1B) indicates short-term upregulation of SOD2 and BDNF and sustained upregulation of BDNF (n=3-4/group, one-way ANOVA followed by unpaired t-test; […]).
Referring to FIG. 6, treatment of SH-SY5Y neuroblastoma cells with compounds (1 μM, 6 h) induced SOD2 mRNA expression >2 fold, as detected by q-RT-PCR. N=4/group, mean+/−SEM, 2-way ANOVA, post-hoc t-test. *p<0.05).

Like-named read-outs stand apart in the source and are kept apart here.

The values that follow come from US11472781B2, “2-aminoaryl-5-aryloxazole analogs for the treatment of neurodegenerative diseases” (Southern Research Institute, priority 2018, dated 2022).

What is called EC50 is the concentration that produces a half-maximal response.

With `O=C(/C=C\Nc1ccccc1Br)c1ccc2c(c1)OCO2` [Compound 1, (Z)-1-(Benzo[d][1,3]dioxol-5-yl)-3-((2-bromophenyl)amino)prop-2-en-1-one], in the data set with SOD2 [1], the SOD2 protein expression entry was “induce SOD2”. In addition, in the data set on SOD2 [1], the SOD activity entry was “increase”. Moreover, the oral bioavailability result in the data set “In vivo PK (I.V./P.O.)” is on record as “lack of oral bioavailability”. Besides, the half-life in the data set “In vivo PK (I.V./P.O.)” (male, CD1, mouse, plasma, read-out: plasma half-life (t1/2)) was less than 5 min. The “progression to higher (worse) neurological scores / score of 4” value in data set [2] is recorded as “delayed”. Also, the survival entry in data set [2] is reported as “significantly prolonged”. Further, the “plasma and brain levels” value in data set [3] is “substantial plasma and brain levels”. In addition, the “SOD2 mRNA expression” value with SOD2 [4] was “induce SOD2”; with SOD2 [5] (q-RT-PCR) it was roughly 2 fold; in the data set on SOD2 [5] (SH-SY5Y), “induce SOD2”. For the same molecule, the maximal fold induction with NF-κB (Homo sapiens) turned out to be 26. In addition, the EC50 in the data set on NF-κB (Homo sapiens, read-out: EC50) stood at 0.5 µM.
Take `O=C(O)c1cccc(-c2cnc(Nc3c(F)cc(F)cc3F)o2)c1` [Compound 48]: the maximal fold induction in the data set on NF-κB (Homo sapiens) came to 14.1. Moreover, the EC50 in the data set with NF-κB (Homo sapiens, read-out: EC50) is greater than 10 µM.
On to `O=C(O)c1ccc(-c2cnc(Nc3cccc(F)c3)o2)cc1` [Compound 50], for which the EC50 result with NF-κB is reported as “Inactive”. The maximal fold induction in the data set on NF-κB (Homo sapiens) was found to be 6.15.
As for `O=C(O)c1ccc(-c2cnc(Nc3ccc(F)cc3)o2)cc1` [Compound 51], the EC50 entry in the data set on NF-κB is reported as “Inactive”. Further, the maximal fold induction in the data set with NF-κB (Homo sapiens) came out at 4.22.
In the case of `O=C(O)c1ccc(-c2cnc(Nc3c(F)cccc3F)o2)cc1` [Compound 53], the EC50 result in the data set with NF-κB was “Inactive”.
Take `O=C(O)c1ccccc1-c1cnc(Nc2ccccc2F)o1` [Compound 54]: in the data set with NF-κB, the concentration for a half-maximal effect (EC50) entry is reported as “Inactive”. The maximal fold induction in the data set on NF-κB (Homo sapiens) is 5.37.
On to `O=C(O)c1ccccc1-c1cnc(Nc2cc(F)ccc2F)o1` [Compound 55], for which the EC50 result in the data set on NF-κB is listed as “Inactive”. Besides, the maximal fold induction with NF-κB (Homo sapiens) was determined as 4.46.
Consider `COC(=O)c1cccc(-c2cnc(Nc3c(F)cc(F)cc3F)o2)c1` [Compound 64], for which the maximal fold induction with NF-κB (Homo sapiens) stood at 12.3. In addition, in the data set with NF-κB (Homo sapiens, read-out: EC50), the EC50 is greater than 10 µM.
Regarding `COC(=O)c1ccc(-c2cnc(Nc3ccc(F)cc3)o2)cc1` [Compound 67], in the data set with NF-κB, the EC50 result is recorded as “Inactive”.
Consider `COC(=O)c1ccc(-c2cnc(Nc3ccc(F)cc3F)o2)cc1` [Compound 68], for which the maximal fold induction in the data set with NF-κB (Homo sapiens) was 4.41. Besides, the EC50 in the data set on NF-κB (Homo sapiens, read-out: EC50) is greater than 10 µM.
For the molecule `COC(=O)c1ccc(-c2cnc(Nc3cccc(F)c3F)o2)cc1` [Compound 71], the EC50 entry with NF-κB was “Inactive”. The maximal fold induction in the data set with NF-κB (Homo sapiens) was 7.24.
For `COC(=O)c1ccc(-c2cnc(Nc3c(F)cc(F)cc3F)o2)cc1` [Compound 72], in that order: “Inactive” and 3.97.
For `COC(=O)c1ccccc1-c1cnc(Nc2ccccc2F)o1` [Compound 73], the EC50 entry in the data set on NF-κB is “Inactive”. In addition, the maximal fold induction in the data set with NF-κB (Homo sapiens) was 2.37.
In the case of `COC(=O)c1ccccc1-c1cnc(Nc2cccc(F)c2)o1` [Compound 74], the EC50 entry in the data set on NF-κB is reported as “Inactive”. In the data set with NF-κB (Homo sapiens), the maximal fold induction was determined as 2.37.
For `COC(=O)c1ccccc1-c1cnc(Nc2ccc(F)cc2)o1` [Compound 75], in the data set on NF-κB, the EC50 entry is listed as “Inactive”. For the same molecule, the maximal fold induction in the data set with NF-κB (Homo sapiens) is 2.97.
Turning to `COC(=O)c1ccccc1-c1cnc(Nc2ccc(F)cc2F)o1` [Compound 76], in the data set on NF-κB, the EC50 result is “Inactive”. Besides, in the data set with NF-κB (Homo sapiens), the maximal fold induction was 4.45.
The matching figures for `COC(=O)c1ccccc1-c1cnc(Nc2cc(F)ccc2F)o1` [Compound 77]: “Inactive” and 2.29.
Turning to `COC(=O)c1ccccc1-c1cnc(Nc2c(F)cccc2F)o1` [Compound 78], the 50% effective concentration (EC50) result in the data set with NF-κB is reported as “Inactive”. The maximal fold induction with NF-κB (Homo sapiens) is 4.36.
As for `Fc1ccccc1Nc1nc(-c2ccccn2)no1` [Compound 81, N-(2-fluorophenyl)-3-(pyridin-2-yl)-1,2,4-oxadiazol-5-amine], the maximal fold induction in the data set with NF-κB (Homo sapiens) is 14.4. In addition, in the data set on NF-κB (Homo sapiens, read-out: EC50), the EC50 came out at 2.51 µM.
With `CC(C)N(c1ccc(F)cc1)c1ncc(-c2cccc(C(=O)O)c2)o1` [Compound 83], the concentration for a half-maximal effect (EC50) entry in the data set on NF-κB is given as “Inactive”. The maximal fold induction with NF-κB (Homo sapiens) was determined as 4.5.
In the case of `O=C(O)c1cccc(-c2cnc(Nc3ccc(Cl)cc3)o2)c1` [Compound 84], the maximal fold induction in the data set with NF-κB (Homo sapiens) is 11.3. In the data set with NF-κB (Homo sapiens, read-out: EC50), the EC50 stood at 0.75 µM.
`COC(=O)c1cccc(-c2cnc(Nc3ccc(Cl)cc3)o2)c1` [Compound 85]: the EC50 entry in the data set with NF-κB is on record as “Inactive”. Besides, the maximal fold induction in the data set on NF-κB (Homo sapiens) was 5.77.
Take `COC(=O)c1cccc(-c2cnc(N(c3ccc(F)cc3)C(C)C)o2)c1` [Compound 86]: in the data set on NF-κB, the EC50 entry was “Inactive”. For the same molecule, the maximal fold induction in the data set with NF-κB (Homo sapiens) was 2.2.
For the molecule `COC(=O)c1cccc(-c2cnc(Nc3ccc(C(F)(F)F)cc3)o2)c1` [Compound 87], the EC50 result in the data set with NF-κB is given as “Inactive”. In addition, the maximal fold induction in the data set on NF-κB (Homo sapiens) was 5.29.
As for `COC(=O)c1cccc(-c2cnc(Nc3ccc(C#N)cc3)o2)c1` [Compound 88], in the data set with NF-κB, the EC50 entry was “Inactive”. Further, the maximal fold induction in the data set with NF-κB (Homo sapiens) came out at 3.49.
The matching figures for `CCCN(c1ccc(F)cc1)c1ncc(-c2cccc(C(=O)OC)c2)o1` [Compound 89]: “Inactive” and 3.
For `COC(=O)c1cccc(-c2cnc(Nc3ccc(OC)cc3)o2)c1` [Compound 90], in that order: “Inactive” and 2.47.
The matching figures for `Fc1ccc(Nc2ncc(-c3cccc(-c4nnn[nH]4)c3)o2)cc1` [Compound 93]: “Inactive” and 2.59.
In the case of `NCc1cccc(-c2cnc(Nc3ccccc3F)o2)c1` [Compound 96], the EC50 entry in the data set with NF-κB was “Inactive”. Besides, the maximal fold induction in the data set with NF-κB (Homo sapiens) amounted to 5.14.
The matching figures for `Nc1cccc(-c2cnc(Nc3ccccc3F)o2)c1` [Compound 97]: “Inactive” and 0.55.
For `Cc1noc(-c2cccc(-c3cnc(N(C)c4ccc(F)cc4)o3)c2)n1` [Compound 98], in that order: “Inactive” and 3.2.
